Here are results for six compounds from US20130283403A1, “ZEBRAFISH SEIZURE MODEL, METHOD FOR ES[…] SAME, AND METHOD FOR SCREENING ANT[…] USING THE SAME” (NATIONAL CHENG KUNG UNIVERSITY, priority 2012, published 2013).

Molecules are shown by their SMILES.

For series [1], the system named is ginkgotoxin-induced zebrafish seizure model. The series is described as follows: Screening for drugs using the ginkgotoxin-induced zebrafish seizure model. In kind it is in vivo, zebrafish (Dania rerio, AB strain). The settings on record: for rescuing effect: zebrafish at six hours post fertilization treated for 3 days, FIGS. 4A and 4B. As to the method: (§1) A solution of the ginkgotoxin is stored below −20° C. The ginkgotoxin concentrate of 40 mM is added to a fish water to keep the concentrations between 0.2 mM and 1 mM while the zebrafish seizure model is induced. The zebrafish is incubated in the fish water without ginkgotoxin for the control group.
(§2) Pyridoxal-5′-phosphate and GABA stock solution of 40 mM are used when measuring the response of zebrafish embryos seizure model with respect to effects of ant-convulsant drugs. Anticonvulsant drugs, such as gabapentin, phenyloin, and primidone, are dissolved in DMSO to make 100 mM concentration. During experiments, anticonvulsant drugs and ginkgotoxin are added to the fish water simultaneously, or the anticonvulsant drugs are added to the fish water three hours before the zebrafish behaviors are recorded and analyzed. This will be described in detail in the following.
(§3) The swimming behavior of zebrafish were was observed directly by naked eyes to determine the test results, and a quantified standard is made by a swimming distance and velocity of the zebrafish. At least 10 zebrafish were used for each group.
(§4) Besides, the zebrafish embryos are placed in 200 μl fish water in a concave on microscope slide. Herein, the zebrafish embryos are observed and recorded under a high-resolution dissecting microscope (Panasonic Digital video camera, DMC-FX55GT). Further, each condition, such as the swimming distance and velocity, of zebrafish are analyzed and quantified by a locomotion tracking system (EthoVision XT8.0 locomotion tracking system® (Noldus Information Technology, Inc., Leesburg, Va., USA)). The zebrafish is incubated in the fish water without ginkgotoxin for the control group.
Herein, GABA, PLP, gabapentin and phenyloin are used to perform experiments. The zebrafish embryos are incubated in fish water without ginkgotoxin represented as a “control group”; the zebrafish embryos are treated with ginkgotoxin represented as “GT”; the zebrafish embryos are treated simultaneously with ginkgotoxin and PLP of 0.5 mM represented as “GT+PLP”; the zebrafish embryos are treated simultaneously with ginkgotoxin and GABA of 0.5 mM represented as “GT+GABA”; the zebrafish embryos are treated simultaneously with ginkgotoxin and gabapentin of 1 mM represented as “GT+gabapentin”; the zebrafish embryos are treated simultaneously with ginkgotoxin and phenyloin of 1 mM represented as “GT+phenyloin”. The results are shown in FIGS. 2A to 4B, wherein, FIG. 2A and FIG. 2B are results showing that zebrafish at 3 days post fertilization of the example are treated for 2 hours; FIG. 3A and FIG. 3B are results showing that zebrafish at 5 days post fertilization of the example are treated for 2 hours; FIG. 4A and FIG. 4B are results that zebrafish at 6 hours post fertilization of the example were treated for 3 days. These indicate aggrevated seizure and convulsion when the swimming distance is longer and swimming velocity is faster transitorily.
Here, a comparison between the zebrafish seizure model induced by PTZ and one induced by ginkgotoxin is drawn. Wherein, the zebrafish embryos incubated in fish water without ginkgotoxin represented as a “control group”; the zebrafish embryos only treated with ginkgotoxin represented as “GT”; the zebrafish embryos treated only with PTZ of 0.5 mM represented as “PTZ”; the zebrafish embryos treated simultaneously with ginkgotoxin and DMSO represented as “GT+DMSO”; the zebrafish embryos treated simultaneously with PTZ and DMSO represented as “PTZ+DMSO”; the zebrafish embryos treated simultaneously with ginkgotoxin and gabapentin of 2 mM represented as “GT+gabapentin”; the zebrafish embryos treated simultaneously with PTZ and phenyloin of 2 mM represented as “PTZ+phenyloin”; the zebrafish embryos treated simultaneously with GT and folic acid of 1 mM represented as […]; the zebrafish embryos treated simultaneously with PTZ and folic acid of 1 mM is indicated as “PTZ+folic acid”. […]

The subject of another series is zebrafish larvae. Nature of the series: Establishing the zebrafish seizure model with ginkgotoxin. In kind it is in vivo, zebrafish (Dania rerio, AB strain). As to the method: as §1, §3, §4
To induce seizures, the zebrafish larvae at 5 days post fertilization (5-dpf) are placed in fish water containing ginkgotoxin of various concentrations (0.2 mM to 1 mM) and ecorded and analyzed 2 hours later. […]

Series [2] concerns PTZ-induced zebrafish seizure model. The series is described as follows: Zebrafish seizure model induced by PTZ. In kind it is in vivo, zebrafish (Dania rerio, AB strain). The settings on record: model induced by PTZ 0.5 mM, FIGS. 5A and 5B. On the procedure:
as §2, §3
Besides, the zebrafish embryos are placed in 200 μl fish water in a concave on microscope slide. Herein, the zebrafish embryos are observed and recorded under a high-resolution dissecting microscope (Panasonic Digital video camera, DMC-FX55GT). Further, each condition, such as the swimming distance and velocity, of zebrafish are analyzed and quantified by a locomotion tracking system (EthoVision XT8.0 locomotion tracking system® (Noldus Information Technology, Inc., Leesburg, Va., USA)). The zebrafish is incubated in the fish water without ginkgotoxin for the control group. […]

The test system is the same in series [3]. The settings on record: current experimental data; cited from earlier work.
[4] abbreviates: 0.5 mM added simultaneously with ginkgotoxin 0.5 mM, FIGS. 2A to 4B.
Setting [5] is: 1 mM added simultaneously with ginkgotoxin 0.5 mM, regardless of embryonic stage, FIGS. 2A to 4B.

On to `NCCCC(=O)O` [GABA, gamma-aminobutyric acid], for which, in series [1] (setting [4]), the “conditions of seizure and convulsion (swimming distance and velocity)” value (“conditions of seizure and convulsion” for short) was “alleviated with a greater extent”. Besides, the rescuing effect result in series [1] (0.5 mM with ginkgotoxin) was “most obvious signs of rescuing effect”.

With `Cc1ncc(COP(=O)(O)O)c(C=O)c1O` [PLP, Pyridoxal-5′-phosphate], the “conditions of seizure and convulsion” value in series [1] (setting [4]) is “alleviated with a greater extent”. In series [1] (0.5 mM with ginkgotoxin), the rescuing effect result is reported as “most obvious signs of rescuing effect”.

For the compound `NCC1(CC(=O)O)CCCCC1` [gabapentin], the “conditions of seizure and convulsion” value in series [1] (setting [5]) is given as “alleviated with greater extent”. Besides, the rescuing effect result in series [1] (1 mM with ginkgotoxin) is given as “most obvious signs of rescuing effect”.

Take `COCc1c(CO)cnc(C)c1O` [ginkgotoxin, 4-O-methylpyridoxine]: the “lower dose at which the zebrafish seizure model can be established” value with zebrafish larvae (5-dpf larvae, after incubating for 2 hours, FIG. 1B) was found to be 0.2 mM. Further, the “concentration at which the zebrafish seizure model can be established steadily” value with zebrafish larvae (zebrafish larvae at 5 days post fertilization, in fish water, FIGS. 1A and 1B) is 500 µM. Further, the “state of zebrafish treated with ginkgotoxin (swimming distance and velocity)” value in series [1] (0.5 mM, 3 dpf or 5 dpf treated 2 hours, 6 hpf treated 3 days, FIGS. 2A to 4B) is on record as “states of seizure or convulsion”.

Take `O=C1NC(=O)C(c2ccccc2)(c2ccccc2)N1` [phenyloin]: in series [1] (setting [5]), the “conditions of seizure and convulsion” value is given as “alleviated with greater extent”. Also, the rescuing effect result in series [1] (1 mM with ginkgotoxin) is “most obvious signs of rescuing effect”.

Take `CCC1(c2ccccc2)C(=O)NCNC1=O` [primidone]: the “detection as antiepileptic or anti-convulsion drug (seizure stage 0/I/II)” value was “could not be accomplished” in series [2]; “enable to screen out” in series [1] (model induced by ginkgotoxin, FIGS. 5A and 5B). The “response of the PTZ-induced seizure model to the drug” value in series [3] was “does not respond”.
